From a melting point compilation (Tetko et al.; mined from patent text by program, amines drawn as free bases though some values may be those of a salt) come the findings set out here.

A word on the melting point: it is the temperature of the solid-liquid transition.

`O=C(Cn1ccnc1)c1cccc2ccccc12` came in with a melting point of 114 to 117 °C.

For the compound `CCOC(=O)Nc1ccc(OC)c(OC)c1`, the melting point fell in the range of 75 to 78 °C.

In the case of `C#CCn1ccc(C(=O)OC)c1C=O`, the melting point worked out at 76 °C.

`CC(C)C(OCc1ccccc1)[C@H]1[C@H]([N+](=O)[O-])[C@H](c2cccnc2)N[C@@H]1C(=O)NCCC(=O)O` (some centres not stated) gave a melting point of 98 to 100 °C.

In the case of `c1ccc2c(c1)N=C(C1CCCCC1)c1cccc3c1N2CC3`, the melting point was in the range of 104 to 106 °C.

The compound `CCCCC(Cn1cncn1)(NC(C)=O)c1ccc(Cl)cc1` (configuration not stated) returned a melting point of 178 to 179 °C.

For `CS(=O)(=O)c1ccc(-c2[nH]c(CO)nc2-c2ccc(F)cc2)cc1`, the melting point fell in the range of 115 to 117 °C.

With `O=C(CC1CCCCC1)Nc1c(Cl)ccc2nc(N3CCC[C@@H](O)C3)ccc12`, the melting point lay within 209 to 214 °C.

As for `Cn1nc2ccc(S)nn2c1=O`, the melting point is > 280 °C.

The compound `CCCNC(=O)C1(C/C=C/c2ccccc2)c2ccccc2-c2ccccc21` came in with a melting point of 95 to 97 °C.

`COc1ccc2c(c1)OCC(=Cc1cccnc1)C2=O`: the melting point was in the range of 126 to 128 °C.

The compound `O=C(O)CCCCN(C(=O)c1ccc(Cl)cc1)c1ccccc1-c1ccccc1` registered a melting point of 170 to 173 °C.

`CCCCOc1ccc(S(=O)(=O)C2(C(=O)OCC)CCN(Cc3ccc(Cl)c(Cl)c3)CC2)cc1` displayed a melting point of 86 °C.

In the case of `Cc1ccc2c(c1)c1cc(-c3ccc(Cl)cc3Cl)c(=O)n(C)c1n2CCCN1C(=O)c2ccccc2C1=O`, the melting point turned out to be 249 °C.

In the case of `O=C1c2ccccc2C(=O)c2sc(-c3cc(Br)co3)nc21`, the melting point was > 260 °C.

As for `Cc1cc(-c2cnn(-c3ccccc3)c2)ccc1OC=C1C=CC=CC1n1nnn(C)c1=O` (configuration not stated), the melting point fell in the range of 152 to 153 °C.

Turning to `CCCCCCCN(Cc1ccc(C(C)(C)C)cc1)C(Nc1c(C)cc(C)cc1C)=C1C(=O)COC1=O`, the melting point was 141 to 143 °C.

In turn, `C[C@@H](n1cnn(-c2ccc(OCC(F)(F)F)cc2)c1=O)[C@@]1(c2ccc(F)cc2F)CO1` came in with a melting point of 118 to 119 °C.

For the compound `Cc1cc(-c2nc3cccnn3c2-c2ccnc(NC(=O)c3ccnc(Cl)c3)c2)ccc1F`, the melting point was in the range of 224 to 225 °C.

The compound `Cc1ccc(S(=O)(=O)N2CC[C@@H](O)C2)cc1` returned a melting point of 108 to 112 °C.

As to `c1ccc2c(c1)NC(C1CCCCC1)c1cccc3c1N2CC3` (configuration not stated), the melting point was 136 to 138 °C.

The compound `O=CNc1ccc2c(c1)C(=O)CCC2` gave a melting point of 137 to 138 °C.

In turn, `CCCN(CC(=O)NC12CC3CC(CC(C3)C1)C2)C(=O)NCCCc1ccncc1` displayed a melting point of 132 °C.

The compound `CCOC(=O)C1=CC(C(=O)c2cc(Cl)c(C)cc2O)=CN2CCc3c([nH]c4ccccc34)C12C(=O)OCC` (configuration not stated) showed a melting point of 196 °C.

Take `O=c1[nH]c(-c2cc(C(F)(F)F)cc(C(F)(F)F)c2)nn1-c1cc(Cl)ccc1O`: the melting point lay in the range of 235 to 236 °C.

The compound `C#Cc1cccc(Nc2ncnc3ccc(S(=O)(=O)n4ccc(C=CC(=O)O)c4)cc23)c1` had a melting point of 286 to 289 °C.

As to `O=C(Nc1ccc2cc(CN3CCC(CO)CC3)cnc2c1)c1ccc(-c2ccc(F)cc2)cc1`, the melting point lay in the range of 191 to 195 °C.

As to `CCCOc1ccccc1-c1nc2nc(N)nnc2c(=O)[nH]1`, the melting point fell in the range of 255 to 256 °C.

The compound `CCCOC(=O)NCCCC1(O)c2ccccc2C=Cc2c(C)cccc21` (configuration not stated) returned a melting point of 157 to 159 °C.

In the case of `O=C1CCC(c2ccccc2F)(c2ccccc2F)[C@@H]2CN(Cc3ccccc3)C[C@H]12` (racemic), the melting point was 138 °C.

On to `Cc1c(Cc2ccccc2)c(=O)oc2cc(OCC#N)cc(OCC#N)c12`, for which the melting point lay in the range of 147 to 154 °C.

As for `C[C@@H](O[Si](C)(C)C(C)(C)C)[C@@H]1C(=O)N[C@@H]1S(C)(=O)=O`, the melting point lay within 101 to 102 °C.

In turn, `CCCS(=O)(=O)N(c1cc(Cl)ccc1C(=O)OC)S(=O)(=O)CCC` registered a melting point of 156 to 158 °C.

Take `COC(=O)c1cccc(Cn2ccc(OCc3ccc(F)cc3F)c(Cl)c2=O)c1F`: the melting point is 171 to 174 °C.

`CCOC(=O)C(C#N)=CNNCC(=Cc1ccccc1)c1ccccc1` displayed a melting point of 129 to 133 °C.

The compound `O=[N+]([O-])CS(=O)(=O)c1c[nH]c2ccccc12` had a melting point of 181 to 182 °C.

For the compound `Cc1c(Cl)ccc(OC(C)C(=O)O)c1Cl` (configuration not stated), the melting point turned out to be 150 °C.

Regarding `CC(=O)OCC1OC(Oc2ncn(Cc3ccc([N+](=O)[O-])cc3)c2C(N)=O)C(OC(C)=O)C1OC(C)=O` (configuration not stated), the melting point is 156 °C.

`Cc1cc(-c2c(F)cc3c(=O)c(C(=O)O)cn4c3c2OC[C@@H]4C)cc(C)n1` came in with a melting point of 305 to 308 °C.

Take `COc1cc(-n2c(=O)cc(C(F)(F)F)n(C)c2=O)c(F)cc1Cl`: the melting point is 128 to 130 °C.

`Clc1cccnc1-c1cc(OCCc2ccccn2)c2[nH]nc(Br)c2c1`: the melting point was > 250 °C.

Consider `CC1N(C(=O)c2ccc(C(F)(F)F)cc2)CC(n2cncn2)OC1(Cn1cncn1)c1ccc(Cl)cc1Cl` (configuration not stated), for which the melting point was in the range of 191 to 201 °C.

In the case of `CC(=O)CS(=O)(=O)CCc1ccc2c(c1)OCO2`, the melting point lay in the range of 97 to 99 °C.

On to `CCCCCCCCCCOc1cc(OCCCCCCc2cccc(O)c2O)cc(C(=O)OC)c1`, for which the melting point was in the range of 71 to 72 °C.

`COc1ccc(-c2coc3cc(OCC(O)CN4CCNCC4)ccc3c2=O)cc1OC` (configuration not stated): the melting point lay within 84 to 85 °C.

With `O=C(O)CCC(=O)c1ccc(-c2ccccc2F)cc1`, the melting point lay in the range of 148 to 153 °C.

For the compound `COc1cc(C)ccc1C(=O)O`, the melting point lay within 103 to 104 °C.

`Cn1c(/C=C/C(=O)O)c(-c2ccccc2)c2ccccc2c1=O` showed a melting point of 266 to 268 °C.

For `Clc1cccc(Nc2ccc(Oc3ccccc3)cc2)n1`, the melting point was in the range of 69 to 73 °C.

In turn, `CCCCCCCCCCn1c(C)cc(C)c(C(=O)O)c1=O` returned a melting point of 67.5 to 72 °C.

`C=CC(=O)OCCc1cc(=O)c(OCc2ccccc2)c(C(=O)c2ccc(Cc3ccc(F)cc3)o2)o1`: the melting point was in the range of 104 to 106 °C.

Take `O=C(O)C(=O)c1ccc(OC/C=C/c2ccccc2)cc1`: the melting point lay within 103 to 105 °C.

`CC(C)c1cc2ncccc2cc1Oc1cnc(N)nc1N` yielded a melting point of 207 to 208 °C.

`N#CN1CCN(c2nn(S(=O)(=O)c3ccccc3)c3cc(Cl)ccc23)CC1` returned a melting point of 179 to 181 °C.

Turning to `COC(=O)c1cccc(S(=O)(=O)Cc2c(O[C@H](Cn3ccnc3)c3ccccc3)ccc3c2CCCC3=O)c1`, the melting point amounted to 85 °C.

In turn, `COC(=O)c1cc2ccnc(NS(=O)(=O)c3cccs3)c2[nH]1` had a melting point of 159 to 160 °C.

`COc1ccc(C(=O)O)c2c1OCCCO2` displayed a melting point of 186 °C.

Compound `Cc1ccc(S(=O)(=O)NC2N=C(c3ccccc3F)c3ccccc3NC2=O)cc1` (racemic) displayed a melting point of 215 to 216 °C.

As for `O=C(O)c1cccc2c1CC(N(CCCc1c[nH]c3c(F)cc(F)cc13)C1CCC1)CO2` (configuration not stated), the melting point lay in the range of 130 to 131 °C.

As for `O=[N+]([O-])C(CN1CCOCC1)=C1NCCCS1`, the melting point is 131 to 132 °C.

Compound `Oc1cccc(-c2noc3cc(F)ccc23)c1` had a melting point of 144 to 145 °C.

Regarding `CCc1ccc(N(Cc2ccc(C(=O)N(C)C)cc2)C(=O)Nc2c(C(C)C)cccc2C(C)C)cc1`, the melting point lay within 170 to 172 °C.
